Publication PMC9269301, “Phytochemical Analysis, Antioxidant, Antimicrobial, and Cytotoxic Activity of Different Extracts of Xanthoparmelia stenophylla Lichen from Stara Planina, Serbia” (Plants, 2022)
In brackets after ≈: the same amount, converted by molar mass. Read-outs that look alike come from different tables or passages of the source.

Key:
C. albicans (isolate) = test: Microdilution with resazurin, antifungal; type: cell-based, Candida albicans; conditions: Candida albicans, antimycotics
Description: (§1) The tested methanol, acetone, and n-hexane extracts, as well as the component (usnic acid) of X. stenophylla, were dissolved in 10% dimethyl sulfoxide (DMSO) and then diluted into the nutrient liquid medium. DMSO was obtained from Acros Organics (Fair Lawn, NJ, USA). Resazurin was obtained from Alfa Aesar GmbH & Co. (KG, Karlsruhe, Germany).
(§2) The antimicrobial activity of the extracts and components was tested against 19 microorganisms. The experiment involved 15 strains of bacteria (i.e., 6 standard strains: Staphylococcus aureus ATCC 6538, Bacillus subtilis ATCC 6633, Proteus mirabilis ATCC 12453, Pseudomonas aeruginosa ATCC 27853, Klebsiella pneumoniae ATCC 70063, and Escherichia coli ATCC 25922; 9 isolates: Staphylococcus aureus, Escherichia coli, Salmonella enterica, Salmonella Typhimurium, Proteus mirabilis, Klebsiella pneumoniae, Pseudomonas aeruginosa, Bacillus subtilis, and Bacillus cereus). In addition, four fungal strains (i.e., two standard strains: Candida albicans ATCC 10231 and Aspergillus niger ATCC 16888; two isolates: Saccharomyces cerevisiae and Candida albicans) were tested. All isolates were a generous gift from the Institute of Public Health, Kragujevac. The other microorganisms were provided from the collection held by the Microbiology Laboratory Faculty of Science, University of Kragujevac.
(§3) The bacterial suspensions were prepared by the direct colony method. The turbidity of the initial suspension was adjusted using a densitometer (DEN-1, BioSan, Riga, Latvia). When adjusted to the turbidity of the 0.5 McFarland’s standard (Andrews, 2005) the bacteria suspension contained approximately 10^8 colony-forming units (CFU)/mL, and the suspension of yeast contained 10^6 CFU/mL; 1:100 dilutions of the initial suspension were additionally prepared in sterile 0.85% saline. The suspensions of fungal spores were prepared by gentle stripping of spores from slopes with growing mycelia. The resulting suspensions were 1:1000 diluted in sterile 0.85% saline.
(§4) Antimicrobial activity was tested by determining the minimum inhibitory concentrations (MICs) and minimum microbicidal concentrations (MBCs) using the microdilution plate method with resazurin [56]. The 96-well plates were prepared by dispensing 100 μL of Mueller–Hinton broth for bacteria and Sabouard broth for fungi into each well. A 10 μL aliquot from the stock solution of the tested extract or component was added to the first row of the plate. Then, two-fold serial dilutions were performed using a multichannel pipette. The obtained concentration range was from 10 to 0.08 mg/mL. The method is described in detail in [76].
(§5) Each test included growth control and sterility control.
(§6) Minimum microbicidal concentrations were determined by plating 10 μL of samples from wells where no indicator color change or no mycelia growth was recorded on a nutrient agar medium. At the end of the incubation period, the lowest concentration with no growth (no colony) was defined as the minimum microbicidal concentration.

C. albicans ATCC 10231 = test: Microdilution with resazurin, antifungal; type: cell-based, Candida albicans; conditions: Candida albicans, ATCC10231, antimycotics
Description: as §1, §2, §3, §4, §5, §6

A. niger ATCC 16888 = test: Microdilution with resazurin, antifungal; type: cell-based, Aspergillus niger; conditions: Aspergillus niger, ATCC16888, antimycotics
Description: as §1, §2, §3, §4, §5, §6

P. aeruginosa biofilm = test: Antibiofilm activity (biofilm formation, crystal violet); type: cell-based, Pseudomonas aeruginosa; conditions: 48 h; for IC50: Pseudomonas aeruginosa, read-out: BIC50 (biofilm inhibitory concentration, 50% reduction of biofilm coverage)
Description: (§7) The ability of S. aureus ATCC 6538 and P. aeruginosa to form biofilms was assayed as described by O’Toole et al. with some modifications. Briefly, the tissue culture of 96-well microtiter plates (Sarstedt, Germany) were prepared by dispensing 100 µL of nutrient broth (i.e., Mueller–Hinton broth) into each well. Ten microliters of spore suspension (10^8 colony-forming units (CFU)/mL) was added into each row. […] Biofilms formed by adherent cells in 96-well microtiter plates were stained with crystal violet (0.1% w/v; Fluka AG, Buchs, Switzerland) and incubated at room temperature for 20 min. Excess stain was rinsed off by thorough washing with deionized water and then with […] of 96% ethanol. Optical densities (ODs) of stained adherent bacteria were determined with an enzyme-linked immunosorbent assay (ELISA) plate reader (RT-2100C, Rayto, Shenzhen, China) at a 630 nm wavelength. Only broth served as a control to check sterility and nonspecific binding of media. To compensate for background absorbance, OD readings from sterile medium, fixative, and dye were averaged and subtracted from all test values. All tests were performed in duplicate. The tissue culture of 96-well microtiter plates (Sarstedt, Nümbrecht, Germany) were prepared by dispensing 100 µL of nutrient broth (i.e., Mueller–Hinton broth) into each well. From the stock solution of the tested extracts or components (concentration: 20 mg/mL), 100 µL was added to the first row of the microtiter plate. Two-fold serial dilutions were then made using a multichannel pipette, following which 10 µL of fresh bacterial suspension was added to each well. The inoculated microtiter plates were incubated at 37 °C for 48 h. After incubation, the content of each well was gently removed by tapping the microtiter plates. […] Biofilms formed by adherent cells in 96-well microtiter plates were stained with crystal violet (0.1% w/v; Fluka AG, Switzerland) and incubated at room temperature for 20 min. Excess stain was rinsed off by thorough washing with deionized water and then with […] densities (ODs) of stained adherent bacteria were determined with an enzyme-linked immunosorbent assay (ELISA) plate reader at a 630 nm wavelength. […] Only broth or broth with extracts served as a control to check the sterility and nonspecific binding of media. To compensate for background absorbance, OD readings from sterile medium, extracts, fixative, and dye were averaged and subtracted from all test values. All tests were performed in duplicate.

[1] = test system: S. aureus ATCC 6538 biofilm; test: as above; type: cell-based, Staphylococcus aureus; conditions: for IC50: Staphylococcus aureus, read-out: BIC50 (biofilm inhibitory concentration, 50% reduction of biofilm coverage)
Description: as §7

[2] = test system: HeLa cells (cervical adenocarcinoma); test: MTT assay; type: cell-based, human; conditions: for TGI (total growth inhibition) / GI50 / IC50: HeLa; for GI50 / IC50: Homo sapiens; for GI50: read-out: GI50 (50% growth inhibition); for IC50: read-out: IC50; for SI (selectivity index): IC50 MRC-5 / IC50 HeLa
[3] = test system: HCT 116 cells (colon cancer); test: MTT assay; type: cell-based, human; conditions: for GI50 / IC50: Homo sapiens; for GI50: read-out: GI50 (50% growth inhibition); for IC50: read-out: IC50
[4] = test system: MRC-5 cells (nontransformed human lung fibroblast); test: MTT assay; type: cell-based; conditions: for GI50 / IC50: Homo sapiens; for GI50: MRC5, read-out: GI50 (50% growth inhibition); for IC50: MRC5, read-out: IC50
[5] = S. aureus ATCC 6538, 37 °C, 48 h

SMILES: C[C@@H]1[C@H](O)[C@@H](C)/C=C/C=C/C=C/C=C/C=C/C=C/C=C/[C@H](O[C@@H]2O[C@H](C)[C@@H](O)[C@H](N)[C@@H]2O)C[C@@H]2O[C@](O)(C[C@@H](O)C[C@@H](O)[C@H](O)CC[C@@H](O)C[C@@H](O)CC(=O)O[C@H]1C)C[C@H](O)[C@H]2C(=O)O [AB, amphotericin B]
- MFC (C. albicans (isolate); read-out: MFC): 1.95 µg/mL (≈ 2.11 µM)
- MIC (C. albicans (isolate); read-out: MIC): 0.98 µg/mL (≈ 1.06 µM)
- MFC (C. albicans ATCC 10231; read-out: MFC): 1.95 µg/mL (≈ 2.11 µM)
- MIC (C. albicans ATCC 10231; read-out: MIC): 0.49 µg/mL (≈ 0.53 µM)
- MFC (A. niger ATCC 16888; read-out: MFC): 0.98 µg/mL (≈ 1.06 µM)
- MIC (A. niger ATCC 16888; read-out: MIC): 0.98 µg/mL (≈ 1.06 µM)

SMILES: CO/N=C(\C(=O)N[C@@H]1C(=O)N2C(C(=O)O)=C(CSc3nc(=O)c(=O)[nH]n3C)CS[C@H]12)c1csc(N)n1 [CT, ceftriaxone]
- BIC90 (biofilm inhibitory concentration, 90% reduction of biofilm coverage) (P. aeruginosa biofilm; P. aeruginosa, 37 °C): >1000 µg/mL
- IC50 (P. aeruginosa biofilm; P. aeruginosa, 37 °C): 116 µg/mL (≈ 210 µM)
- BIC90 (biofilm inhibitory concentration, 90% reduction of biofilm coverage) [1, 5]: >1000 µg/mL
- IC50 ([1]; ATCC6538, S. aureus ATCC 6538, 37 °C, 48 h): 475 µg/mL (≈ 857 µM)

SMILES: COc1cccc2c1C(=O)c1c(O)c3c(c(O)c1C2=O)C[C@@](O)(C(=O)CO)C[C@@H]3O[C@H]1C[C@H](N)[C@H](O)[C@H](C)O1 [DOX, doxorubicin]
- TGI (total growth inhibition) ([2]; 24 h): <0.1 µg/mL
- TGI (total growth inhibition) ([2]; 48 h): <0.1 µg/mL
- TGI (total growth inhibition) ([2]; 72 h): <0.1 µg/mL
- GI50 ([2]; 24 h): < 0.1 µg/mL
- IC50 ([2]; 24 h): 22.9 ± 3.05 µg/mL (≈ 42.2 µM)
- GI50 ([2]; 48 h): < 0.1 µg/mL
- IC50 ([2]; 48 h): 1.04 ± 0.06 µg/mL (≈ 1.91 µM)
- GI50 ([2]; 72 h): < 0.1 µg/mL
- IC50 ([2]; 72 h): 0.14 ± 0.01 µg/mL (≈ 0.258 µM)
- SI (selectivity index) ([2]; 24 h): 3.8
- SI (selectivity index) ([2]; 48 h): 0.92
- SI (selectivity index) ([2]; 72 h): 0.71
- TGI (total growth inhibition) ([3]; HCT 116, 24 h): <0.1 µg/mL
- TGI (total growth inhibition) ([3]; HCT 116, 48 h): <0.1 µg/mL
- TGI (total growth inhibition) ([3]; HCT 116, 72 h): <0.1 µg/mL
- GI50 ([3]; HCT 116, 24 h): < 0.1 µg/mL
- GI50 ([3]; HCT 116, 48 h): < 0.1 µg/mL
- GI50 ([3]; HCT 116, 72 h): < 0.1 µg/mL
- IC50 ([3]; HCT 116, 24 h): 153 ± 9.69 µg/mL (≈ 281 µM)
- IC50 ([3]; HCT 116, 72 h): 0.41 ± 0.16 µg/mL (≈ 0.754 µM)
- SI (selectivity index) ([3]; IC50 MRC-5 / IC50 HCT 116, 24 h): 0.57
- SI (selectivity index) ([3]; IC50 MRC-5 / IC50 HCT 116, 72 h): 0.24
- GI50 ([4]; MRC-5, 24 h): < 0.1 µg/mL
- GI50 ([4]; MRC-5, 48 h): < 0.1 µg/mL
- GI50 ([4]; MRC-5, 72 h): < 0.1 µg/mL
- IC50 ([4]; MRC-5, 24 h): 86.9 ± 17.2 µg/mL (≈ 160 µM)
- IC50 ([4]; MRC-5, 48 h): 0.96 ± 0.1 µg/mL (≈ 1.77 µM)
- IC50 ([4]; MRC-5, 72 h): 0.1 ± 0.05 µg/mL (≈ 0.184 µM)
- TGI (total growth inhibition) ([4]; MRC-5, 24 h): 54.71 ± 4.65 µg/mL (≈ 101 µM)
- TGI (total growth inhibition) ([4]; MRC-5, 48 h): 6.34 ± 2.90 µg/mL (≈ 11.7 µM)
- TGI (total growth inhibition) ([4]; MRC-5, 72 h): 2.35 ± 0.35 µg/mL (≈ 4.32 µM)

SMILES: CN[C@H](CC(C)C)C(=O)N[C@H]1C(=O)N[C@@H](CC(N)=O)C(=O)N[C@H]2C(=O)N[C@H]3C(=O)N[C@H](C(=O)N[C@H](C(=O)O)c4cc(O)cc(O)c4-c4cc3ccc4O)[C@H](O)c3ccc(c(Cl)c3)Oc3cc2cc(c3O[C@@H]2O[C@H](CO)[C@@H](O)[C@H](O)[C@H]2O[C@H]2C[C@](C)(N)[C@H](O)[C@H](C)O2)Oc2ccc(cc2Cl)[C@H]1O [VM, vancomycin]
- BIC90 (biofilm inhibitory concentration, 90% reduction of biofilm coverage) (P. aeruginosa biofilm; P. aeruginosa, 37 °C): >1000 µg/mL
- IC50 (P. aeruginosa biofilm): 734 µg/mL (≈ 506 µM)
- BIC90 (biofilm inhibitory concentration, 90% reduction of biofilm coverage) [1, 5]: >1000 µg/mL
- IC50 ([1]; ATCC6538, 48 h): 62.6 µg/mL (≈ 43.2 µM)
